The test system of one experiment is human stromal cells. In words: inhibition of proliferation of human stromal cells stimulated with PDGF. It is filed as cell-based. As for the experimental part:
This assay is a model for restenosis and treatment of atherosclerosis and coronary artery disease. Stromal cells were starved in serum-free media for one day and then stimulated with 50 ng/ml PDGF-BB. The drags were added at the indicated concentrations one hour prior to PDGF stimulation. Tritiated thymidine was added for one day at the time of PDGF stimulation and the cells were harvested and counted by liquid scintillation counting 24 hrs later. Background counts (i.e., starved cells) were approximately 1% of control levels.
Another assay for measuring activity of the inventive compounds involves determining PDGF (platelet derived growth factor) proliferative response using human-derived stromal cells. Human stromal cells are plated (e.g., about 2000 cells per well) in defined media (e.g., 69% McCoy's, 12.5% fetal calf serum, 12.5% horse serum, 1% antibiotics, 1% glutamine, 1% vitamin supplement, 0.8% essential amino acids, 1% sodium pyruvate, 1% sodium bicarbonate, 0.4% non-essential amino acids and 0.36% hydrocortisone). Two to three days later, the stromal cells are starved in serum-free media. Twenty four hours later, the cells are treated with a stimulating agent, such as PDGF-AA, PDGF-BB or basic FGF (fibroblast growth factor) with or without IL-1α or TNF, and tritiated thymidine. Cell proliferation is determined by liquid scintillation counting.
This assay is a model for restenosis and treatment of atherosclerosis and coronary artery disease. Stromal cells were starved in serum-free media for one day and then stimulated with 50 ng/ml PDGF-BB. The drugs were added at the indicated concentrations one hour prior to PDGF stimulation. Tritiated thymidine was added for one day at the time of PDGF stimulation and the cells were harvested and counted by liquid scintillation counting 24 hrs later. Background counts (i.e., starved cells) were approximately 1% of control levels.

For the next experiment, the system named is murine thymocytes. Description: inhibition of murine thymocyte proliferation stimulated by ConA and IL-1α. It is filed as cell-based, murine (Balb/C mice). Particulars: FIG. 4, 4 days. As to the method: The drugs (inventive compounds) were added to the cells at the doses indicated two hours prior to activation with ConA and IL-1α. […] Background counts were less than 200 cpm. This in vitro assay is a model for immune suppression and treatment or prevention of autoimmune diseases.
A third assay measures an ability of an inventive compound to inhibit IL-2-induced proliferation of murine thymocytes. Thymus glands are obtained from 4-6 week old mice and plated as a single cell suspension into flat bottomed wells in RPMI 1640 medium supplemented with 10% fetal calf serum. The inventive compounds are added to appropriate wells and the cells are incubated for 1-2 hrs. Concanavilin A (ConA, 0.25 μg/ml) and IL-1 (20 ng/ml) are added and the plates are incubated for 4 days. Cell proliferation is determined as above. There are also variations for this assay that follow the same basic stimulation and measure inhibition of proliferation format. […]
This example illustrates the effect of CT1514, CT1525, CT1527, CT1529, CT1577, CT1583, CT1589, CT1595, CT2519, CT1205, CT1801 and CT1908 on inhibition of murine thymocyte proliferation stimulated by Concanavalin A (ConA) and interleukin-2 (IL-2) (FIG. 4). […] The cells were harvested and incorporated tritiated thymidine was determined in a liquid scintillation counter. […]

A further experiment concerns murine splenocytes. Description: inhibition of murine splenocyte proliferation stimulated by anti-mu and IL-4. It is filed as cell-based. To be noted: FIG. 5; anti-mu (10 μg/ml) and IL-4 (12.5 ng/ml). As for the experimental part: Drug was added to the cells at the doses indicated two hours prior to activation with anti-mu and IL-4. This in vitro assay is a model for immune suppression and treatment or prevention of autoimmune diseases. […] Background counts were less than 200 cpm.
There are a series of in vitro assays that can be used to measure immunosuppressive activity of a particular compound. These assays are a predictive model for treatment or prevention of autoimmune diseases, such as diabetes, lupus, arthritis, and the like. A first assay measures immunosuppressive activity of a drug at the B cell level. Spleens from adult mice contain immature B cells that express surface IgM. Cross-linking the surface IgM with an anti-mu antibody results in B cell proliferation. Additionally, this activation results in an increased expression of interleukin-4 receptors(IL-4R) on the surface of such cells. IL-4 acts as a growth factor for B cells and will increase the amount of proliferation induced by anti-mu. In the first assay, a mixture of anti-mu and murine IL-4 is added to murine splenocytes to cause their proliferation. Mice spleens are obtained from adult mice and a single cell suspension is prepared in RPMI 1640 medium supplemented with 10% FCS. […] Proliferation is determined on the third day with a pulse of tritiated thymidine. […]

Molecules are shown by their SMILES.

As for `Cn1cnc2c1c(=O)n(CCCCC(=O)CCl)c(=O)n2C` [CT1595, 1-(6-chloro-5-oxohexyl)-3,7-dimethylxanthine], the “inhibition of human stromal cell proliferation” value in the experiment on human stromal cells (FIG. 7, 50 ng/ml PDGF-BB, in words) is recorded as “strongly inhibit proliferation”. Moreover, in the experiment on human stromal cells (Homo sapiens, read-out: IC50, inhibition of human stromal cell proliferation), the IC50 was < 10 µM. In the experiment on murine thymocytes, the “inhibition of thymocyte proliferation” value is on record as “most potent drugs”. In the experiment with murine splenocytes, the “inhibition of splenocyte proliferation” value is on record as “most potent inhibitors of splenocyte proliferation in a dose-response manner”.
